# Laboratory results: PMC8582824, “Targeting DDX3X Helicase Activity with BA103 Shows Promising Therapeutic Effects in Preclinical Glioblastoma Models” (Cancers, 2021)
# What was measured:
# U87 cells = assay: MTS cytotoxicity assay, U87 cells; format: cell-based; conditions: for mean absorbance at 490 nm (MTS): 72 h
# Procedure: (§1) For CellTiter 96® Aqueous One Solution Cell Proliferation Assay (MTS) (Promega, Madison, WI, USA), cells were seeded at 5 × 10^3 per well in 96-well plates in quadruplicate together a control with no cells to evaluate the background. After 24 h, the culture medium was removed, and fresh medium containing increasing concentrations of chemical compounds was added to cells. […] DMSO was the vehicle used for dilution of the compounds, and its final concentration on cells was less than 0.2%. Medium-only containing wells were included as controls. Cells were incubated with compounds at different concentrations for 72 h, then, 20 µL of CellTiter 96® AQueous One Solution Reagent was added into each well. After 3 h at 37 °C in a humidified, 5% CO2 atmosphere, the absorbance at 492 nm was recorded using an EZREAD400 (Biochrom, Cambridge, United Kingdom) plate reader. The average 490 nm absorbance from the “no cell” control wells was subtracted from all other values to yield background-corrected absorbance. Dose–response curves and CC50 values have been calculated by plotting the absorbance data as a function of inhibitor concentrations and fitting the data by least-squares nonlinear regression, according to the method of Marquardt–Levenberg, with the computer program GraphPad Prism 6.0.
# (§2) Cells were incubated with a scalar concentration of DDX3X inhibitors, and after 72 h of treatment, cell viability was assessed by cytotoxicity assay. […] Compounds 4, 6, and BA103 were also evaluated against BJ primary fibroblasts; compound 4 has a cytotoxicity value of 84.7 μM; on the contrary, compounds 6 and BA103 were not toxic up to 200 μM concentration. This further excluded a possible nonspecific cytotoxic effect. […] Due to its interesting profile, compound BA103 was further tested against additional pulmonary (A549), breast (MDA-MB-231), colorectal (HCT-116), osteosarcoma (U2OS), rhabdomyosarcoma (RD18), GBM (DBTRG, U87, and U251) and medulloblastoma (DAOY) cancer cell lines.
# (§3) Figure 5 Cytotoxicity of selected compounds. Compounds were assayed on DU-145, PC3, HepG2, Huh-7, HN6, U251, and U87 cell lines. The concentration of the compound, which reduced the number of viable cells by 50% (CC50), was determined by dose–response curve, and the mean CC50 value for each cell line was calculated by triplicate assays (raw data from U87 and U251 cells with dose–response curves used for the calculation of CC50 in Table S1 and Figure S2).
# (§4) Table S1: Raw data of optical absorbance at 490 nm from MTS assay in U87 and U251 cells. Tables contain
# (§5) means with SD of at least 5 different values that were used for preparation of figure 5.
# U251 cells = assay: MTS cytotoxicity assay, U251 cells; format: cell-based; conditions: 72 h
# Procedure: as §1, §2, §3, §4, §5
# Water solubility assay = format: physicochemical; conditions: 27 °C, thermodynamic from solid, read-out: LogS (aqueous solubility) (converted)
# Procedure: Preliminary in vitro ADME analysis was performed to early evaluate the pharmacokinetic (PK) profile of our compounds (Figure 8). Aqueous solubility was calculated by LC-MS-MS analysis. An aliquot of 1 mg of compound was stirred for 24 h at 27 °C in 1 mL of water. The mixture was filtered, and the quantity of solubilized compound was determined. Passive permeability was determined using parallel artificial membrane permeability assay (PAMPA). Microsomal metabolic stability was determined by LC-UV-MS analysis by incubating compounds with human liver microsomes at 37 °C for 60 min (for details, see the Supporting Information). […]
# Each solid compound (1 mg) was added to 1 mL of water. The samples were shaked in a shaker bath at room temperature for 24-36 h. The suspensions were filtered through a 0.45 μm nylon filter (Acrodisc), and the solubilized compound determined by LC-MS-MS assay. For each compound the determination was […]
# For the quantification was used an LC-MS system consisted of a Varian apparatus (Varian Inc) including a vacuum solvent degassing unit, two pumps (212-LC), a Triple Quadrupole MSD (Mod. 320-LC) mass spectrometer with ES interface and Varian MS Workstation System Control Vers. 6.9 software.
# Chromatographic separation was obtained using a Pursuit C18 column (50 x 2.0 mm) (Varian) with 3 μm particle size and gradient elution: eluent A being ACN and eluent B consisting of water. […] The flow rate was 0.2 mL min-1 and injection volume was 5 μL. The instrument operated in positive mode and parameters were: detector 1850 V, drying gas pressure 25.0 psi, desolvation temperature 300.0 °C, nebulizing gas 40.0 psi, needle 5000 V and shield 600 V. Nitrogen was used as nebulizer gas and drying gas. […]
# Chromatographic analysis was performed with an Agilent 1100 LC/MSD VL system (G1946C) (Agilent Technologies, Palo Alto, CA) constituted by a vacuum solvent degassing unit, a binary high-pressure gradient pump, an 1100 series UV detector, and an 1100 MSD model VL benchtop mass spectrometer.
# Chromatographic separation was obtained using a Varian Polaris C18-A column (150-4.6 mm, 5 μm particle size) and gradient elution: eluent A being ACN and eluent B consisting of water. The analysis started with 2% […]
# flow rate was 0.8 mL min-1 and injection volume was 20 μL.
# The Agilent 1100 series mass spectra detection (MSD) single-quadrupole instrument was equipped with the orthogonal spray API-ES (Agilent Technologies, Palo Alto, CA). Nitrogen was used as nebulizing and drying gas. The pressure of the nebulizing gas, the flow of the drying gas, the capillary voltage, the fragmentor voltage, and the vaporization temperature were set at 40 psi, 9 L/min, 3000 V, 70 V, and 350 °C, respectively. […]
# Spectra were acquired over the scan range m/z 100-1500 using a step size of 0.1 u. […]
# BJ primary fibroblasts = assay: Cytotoxicity against BJ primary fibroblasts; format: cell-based
# Procedure: For CellTiter 96® Aqueous One Solution Cell Proliferation Assay (MTS) (Promega, Madison, WI, USA), cells were seeded at 5 × 10^3 per well in 96-well plates in quadruplicate together a control with no cells to evaluate the background. After 24 h, the culture medium was removed, and fresh medium containing increasing concentrations of chemical compounds was added to cells. The fixed final concentrations were 0.1 μM, 1 μM, 10 μM, and 100 μM. DMSO was the vehicle used for dilution of the compounds, and its final concentration on cells was less than 0.2%. Medium-only containing wells were included as controls. Cells were incubated with compounds at different concentrations for 72 h, then, 20 µL of CellTiter 96® AQueous One Solution Reagent was added into each well. After 3 h at 37 °C in a humidified, 5% CO2 atmosphere, the absorbance at 492 nm was recorded using an EZREAD400 (Biochrom, Cambridge, United Kingdom) plate reader. The average 490 nm absorbance from the “no cell” control wells was subtracted from all other values to yield background-corrected absorbance. Dose–response curves and CC50 values have been calculated by plotting the absorbance data as a function of inhibitor concentrations and fitting the data by least-squares nonlinear regression, according to the method of Marquardt–Levenberg, with the computer program GraphPad Prism 6.0.
# as §2
Structure (SMILES),"mean absorbance at 490 nm (MTS) (U87 cells; U87, 0,01 uM)","mean absorbance at 490 nm (MTS) (U87 cells; U87, 0,1 uM)","mean absorbance at 490 nm (MTS) (U87 cells; U87, 1 uM)","mean absorbance at 490 nm (MTS) (U87 cells; U87, 10 uM)","mean absorbance at 490 nm (MTS) (U87 cells; U87, 100 uM)","mean absorbance at 490 nm (MTS) (U251 cells; U251, 0,01 uM)","mean absorbance at 490 nm (MTS) (U251 cells; U251, 0,1 uM)","mean absorbance at 490 nm (MTS) (U251 cells; U251, 1 uM)","mean absorbance at 490 nm (MTS) (U251 cells; U251, 10 uM)","mean absorbance at 490 nm (MTS) (U251 cells; U251, 100 uM)",solubility at 24 h (Water solubility assay) [µM],cytotoxicity value (BJ primary fibroblasts) [µM],"CC50 (U87 cells; U87, 72 h)"
"CC(C)CCc1cn(-c2ccc(NC(=O)Nc3cccc4cnccc34)cn2)nn1 [Compound 10, 1-(6-(4-Isopentyl-1H-1,2,3-triazol-1-yl)pyridin-3-yl)-3-(isoquinolin-5-yl)urea]","1,863","1,379","1,165","0,858","0,467","1,904","2,003","1,581","1,667","0,809",< 0.0363,,
"CCCCc1nnc(-c2ccc(NC(=O)Nc3ccccc3C(F)(F)F)cc2)[nH]1 [Compound 4, 1-(4-(5-Butyl-4H-1,2,4-triazol-3-yl)phenyl)-3-(2-(trifluoromethyl)phenyl)urea]","1,906","1,293","0,941","0,784","0,162","1,499","1,513","1,627","1,482","0,502",0.275,84.7,
"CCCCc1nnc(-c2ccc(NC(=O)Nc3ccccc3C(F)(F)F)cc2)o1 [Compound 3, 1-(4-(5-Butyl-1,3,4-oxadiazol-2-yl)phenyl)-3-(2-(trifluoromethyl)phenyl)urea]","1,350","1,140","1,178","1,065","0,568","1,298","1,025","1,098","0,593","0,217",< 0.0251,,
"CCCCc1cn(-c2ccc(NC(=O)Nc3ccccc3C)cc2)nn1 [Compound 1, reference compound]","2,027","2,018","2,000","1,584","0,465","2,020","1,998","1,459","1,107","0,474",,,
"CCCCc1cn(-c2ccc(NC(=O)Nc3ccccc3C(F)(F)F)cc2)nn1 [BA103, 1-(4-(4-Butyl-1H-1,2,3-triazol-1-yl)phenyl)-3-(2-(trifluoromethyl)phenyl)urea]","1,598","1,132","0,959","0,804","0,566","2,166","2,070","1,364","0,842","0,604",,> 200,low micromolar range
"CCCCn1nnc(-c2ccc(NC(=O)Nc3ccccc3C(F)(F)F)cc2)n1 [Compound 6, 1-(4-(2-Butyl-2H-tetrazol-5-yl)phenyl)-3-(2-(trifluoromethyl)phenyl)urea]","1,944","1,964","2,007","1,387","0,540","1,431","1,763","2,172","1,348","0,361",< 0.0251,> 200,
